Assay: Water gain (moisture uptake) of treated cotton swatches
Format: physicochemical
Details: dried
Procedure: For table 2, the test method is as follows: For “no rinse”: 1×1 cm cotton swatches (triplicates) are placed into a weigh boat where each is labeled according to treatment type and number. Initial weights are recorded for each sample. 500 uL of polymer solution is applied to each cotton swatch sample then reweighed as wet weight. Samples are allowed to dry overnight at room temperature conditions. Sample weights are recorded in the following morning as “no rinse”. Samples are then placed on a tray in the incubator at 37° C., 3.3% CO2, and approximately 90% humidity (the metal tray at the bottom of the incubator has plenty of distilled water in the pan to ensure constant humidity). Opening and closing the incubator door frequently causes parameters to shift so minimizing this will ensure proper control over parameter. Samples are incubated for 8 hours then reweighed. The weights represent the moisture uptake ability for the treated samples. For “with rinse”: Following the weighing, samples are rinsed for 5 seconds in 500 g of vortexing water, and placed into respective weigh boat. Samples are dried overnight at room temperature conditions. Samples are weighed and placed in the incubator the following morning similar to above described procedure and weights are recorded as “with rinse”.

Water gain (No Rinse, incubated 8 hours at 37° C., approximately 90% humidity): 393.3 mg
Water gain (With Rinse, rinsed with water, incubated): 126.9 mg
Compound: OCC(O)CO [40% glycerin, glycerin]

— patent US20110104081A1, “Oral Compositions for Treatment of Dry Mouth” (priority 2009, published 2011)
